What was measured:
gerbils = assay: Spontaneous locomotor activity after 5-min bilateral carotid occlusion (photocell activity chambers); assay type: in vivo, gerbil; details: for Motor Activity at 24 hours: Example 2, saline 3028; for Spontaneous locomotor activity: Table 1, mean of 6 gerbils
Source text: (§1) The present example is based on a surgical procedure that has been developed to study the effects of cerebral or brain ischemia in the unanesthetized gerbil. The methodology is based upon the surgical isolation and instrumentation of both common carotid arteries. A loop of dental floss is placed around each carotid artery and passed through a double lumen catheter material; this allows for later occlusion of the carotid arteries and their release in the unanesthetized subject. […] Behavioral changes consequent to stroke are useful and pertinent as a means of evaluation in this model of nonlethal transient ischemia Emotional lability, depression, agitation and motor and cognitive deficits are common after stroke. The psychomotor depression noted immediately after transient ischemia in this gerbil model mimics the clinical situation in humans. Spontaneous motor activity is an indicator of aroused state and is a behavior commonly measured in psychopharmacology research. Changes in locomotor activity have been shown in extensive pharmacological and toxicology studies to provide reliable, reproducible first-assessment data about neurological status. The details of this method are more fully set forth in Chandler, M.J. et al., J. Pharm. Meth. 14:137-146 (1985).
(§2) Ligatures externalized through double lumen catheters were surgically placed around both common carotid arteries of mature (50-60 gram) gerbils. After allowing recovery from surgery, conscious gerbils were subjected to a 5 minute period of bilateral carotid occlusion by tightening the ligatures. Spontaneous motor activity was then periodically monitered over seven days followed by animal sacrifice and blinded histological evaluation of brain sections. EGF (0.1 and 1.0 mg/kg) and FGF (0.1, 1.0 and 10.0 mg/kg) were given intraperitoneally in saline at one hour pre-occlusion and one, three, five and seven hours post-occlusion. Two control groups (occluded and non-occluded) received saline by the same route.
Spontaneous locomotor activity was recorded using photocell activity chambers. The chambers were two-foot circular arenas that were individually housed in sound attenuating compartments ventilated by a fan. Activity was monitored by two orthogonally placed photocell circuits. A single break of the photocell light beam by the animal's movements defined an activity count counts were monitored and recorded as a function of time. The data in Tables 1 and 2 represent activity counts.
(§3) Gerbils were treated as in Example 1, except that dosing was at 1,3,5 and 7 hours post-occlusion only.

[1] = tested on: hippocampal pyramidal cell layer; assay: Blinded histological evaluation of brain sections after 5-min bilateral carotid occlusion; assay type: in vivo, gerbil; details: for Protection of the animal's neurons (in words): as monitored by motor activity or histology; for Average Histopathology Score: Example 2, saline 4.8, scale 0-5 of Table 4
Source text: as §1, §2, §3

[2] = 0.01 mg/kg i.p. at 1,3,5,7 h post-occlusion only
[3] = 0.1 mg/kg i.p. at 1,3,5,7 h post-occlusion only
[4] = 1 mg/kg i.p. at 1,3,5,7 h post-occlusion only

## EGF: epidermal growth factor; polypeptide growth factor (human EGF is fifty-three amino acids); source of tested material not stated
gerbils; [2]
  Motor Activity at 24 hours: 1891
gerbils; [3]
  Motor Activity at 24 hours: 1051
gerbils; [4]
  Motor Activity at 24 hours: 715
gerbils; 0.1 mg/kg i.p. at 1 h pre- and 1,3,5,7 h post-occlusion, 6 h after ischemia, saline post-ischemic 2366, non-ischemic 485
  Spontaneous locomotor activity: 1511 activity counts
gerbils; 0.1 mg/kg i.p. at 1 h pre- and 1,3,5,7 h post-occlusion, 24 h after ischemia, saline post-ischemic 1960, non-ischemic 529
  Spontaneous locomotor activity: 658 activity counts
gerbils; 0.1 mg/kg i.p. at 1 h pre- and 1,3,5,7 h post-occlusion, 48 h after ischemia, saline post-ischemic 2145, non-ischemic 613
  Spontaneous locomotor activity: 687 activity counts
gerbils; 0.1 mg/kg i.p. at 1 h pre- and 1,3,5,7 h post-occlusion, 72 h after ischemia, saline post-ischemic 1011, non-ischemic 579
  Spontaneous locomotor activity: 715 activity counts
gerbils; 0.1 mg/kg i.p. at 1 h pre- and 1,3,5,7 h post-occlusion, 96 h after ischemia, saline post-ischemic 895, non-ischemic 493
  Spontaneous locomotor activity: 626 activity counts
gerbils; 0.1 mg/kg i.p. at 1 h pre- and 1,3,5,7 h post-occlusion, 120 h after ischemia, saline post-ischemic 486, non-ischemic 463
  Spontaneous locomotor activity: 511 activity counts
gerbils; 1.0 mg/kg i.p. at 1 h pre- and 1,3,5,7 h post-occlusion, 6 h after ischemia, saline post-ischemic 2366, non-ischemic 485
  Spontaneous locomotor activity: 705 activity counts
gerbils; 1.0 mg/kg i.p. at 1 h pre- and 1,3,5,7 h post-occlusion, 24 h after ischemia, saline post-ischemic 1960, non-ischemic 529
  Spontaneous locomotor activity: 766 activity counts
gerbils; 1.0 mg/kg i.p. at 1 h pre- and 1,3,5,7 h post-occlusion, 48 h after ischemia, saline post-ischemic 2145, non-ischemic 613
  Spontaneous locomotor activity: 588 activity counts
gerbils; 1.0 mg/kg i.p. at 1 h pre- and 1,3,5,7 h post-occlusion, 72 h after ischemia, saline post-ischemic 1011, non-ischemic 579
  Spontaneous locomotor activity: 463 activity counts
gerbils; 1.0 mg/kg i.p. at 1 h pre- and 1,3,5,7 h post-occlusion, 96 h after ischemia, saline post-ischemic 895, non-ischemic 493
  Spontaneous locomotor activity: 445 activity counts
gerbils; 1.0 mg/kg i.p. at 1 h pre- and 1,3,5,7 h post-occlusion, 120 h after ischemia, saline post-ischemic 486, non-ischemic 463
  Spontaneous locomotor activity: 314 activity counts
[1]; 0.1 mg/kg i.p. pre- and post-occlusion
  Protection of the animal's neurons (in words): modest protection
[1]; 1 mg/kg i.p. pre- and post-occlusion
  Protection of the animal's neurons (in words): almost total protection
[1]; [2]
  Average Histopathology Score: 4.7
[1]; [3]
  Average Histopathology Score: 1.5
[1]; [4]
  Average Histopathology Score: 2.2

Source: patent US5057494A, “Method for preventing tissue damage after an ischemic episode” (Ethicon, Inc., priority 1988, dated 1991)
